# Assay results as given in patent US9643917B2, “Water-soluble propofol derivatives and uses thereof” (JIANGSU NHWALUOKANG PHARMCEUTICAL RESEARCH AND DEVELOPMENT …, priority 2014, dated 2017).
# Like-named read-outs stand apart in the source and are kept apart here. Marks after values point to notes of the source that are not given here.
# How the values were obtained:
# [1] = rabbit plasma, 37° C., HPLC
# Method: (§1) 0.1 ml samples were taken from each of the solutions, added respectively to 1 ml of blood plasma of rabbit (taken from New Zealand white rabbits, treated according to conventional methods, anticoagulated with heparin) or 1 ml of blood plasma of rat (taken from live SD rats, processed according to conventional methods, anti coagulated with heparin), homogeneously mixed, and placed in a thermostatic water bath at 37° C. for incubation with time being recorded. Samples were taken at different time points after the experiment began, and 2 ml of acetonitrile was immediately added. The samples were shaken and centrifuged for 5 min (15,000 rpm), and the supernatant was then taken for HPLC analysis.
# [2] = rat plasma, 37° C., HPLC
# Method: as §1
# [3] = tested on: KM mice; details: for TI Mouse: TI=LD50/ED50, mouse; for Mouse ED50: disappearance of righting reflex, caudal vein injection
# Method: (§2) Test samples for the experiment on rabbit were formulated to have corresponding concentrations based on the results from a preliminary test. […] Rats and mice were administered with samples having a fixed concentration of drugs, while the volume of administration altered according to actual situation. The volume of administration to rabbits was 1 mL/kg body weight.
# (§3) ED50 and LD50 values concerning anesthesia were determined using a sequential method. Healthy KM mice (male), SD rats (male) and New Zealand White rabbits were used for test. […] For rabbits, the compounds were administered by injection at a constant rate via ear vein for 30 seconds. Before the test, a preliminary test was conducted to determine an approximate dosage (volume of administration) that leads to anesthetization (or death) of animals, which was set as the middle dosage in the formal test. […] The disappearance of righting reflex or death was used as indicators of pharmacological efficacy or toxicity, respectively. The formal test began with the administration of the middle dosage. If animals were anesthetized, a lower dosage was administered; if animals were not anesthetized, a higher dosage was administered, until the cycle was repeated for 3-4 times. LD50 and ED50 were calculated by a sequential method aot425 software. TI was calculated according to the following equation: TI=LD50/ED50.
# [4] = tested on: SD rats; details: for TI Rat: TI=LD50/ED50, rat; for Rat ED50: disappearance of righting reflex, caudal vein injection
# Method: as §2, §3
# [5] = tested on: New Zealand White rabbits; details: TI=LD50/ED50, rabbit
# Method: as §2, §3
# [6] = tested on: Kunming mice; details: tail intravenous injection, n = 5
# Method: Rats and mice were administered with samples having a fixed concentration of drugs, while the volume of administration altered according to actual situation. The volume of administration to rabbits was 1 mL/kg body weight.
# The periods during which the righting reflex of mice disappeared (latent period) and recovered (persistent period) were recorded.
# [7] = in vivo; details: male, KM, mouse, intravenous, caudal vein injection, confirmation test
# Method: as §2, §3
# [8] = in vivo; details: male, SD, rat, intravenous, caudal vein injection
# Method: as §2, §3
# [9] = 3 mg/ml solution, confirmation test
# [10] = 3 mg/ml solution, first test (*)
# [11] = 6 mg/ml solution, confirmation test
# [12] = 6 mg/ml solution, first test (*)
# [13] = dosage 2 * ED50, 3 mg/ml solution
# [14] = dosage 2 * ED50, 6 mg/ml solution
SMILES,Dissociation percent 15 s [1] [%],Dissociation percent 30 s [1] [%],Dissociation percent 5 s [2] [%],Dissociation percent 15 s [2] [%],further results
"CCN(C)CCC(F)C(=O)Oc1c(C(C)C)cccc1C(C)C.Cl (racemic) [E4, propofol 4-N-methyl-N-ethylamino-2-(R,S)-2-fluorobutyrate hydrochloride]",58.3,70.4,70.2,–,–
"CC(C)NCC(CF)C(=O)Oc1c(C(C)C)cccc1C(C)C.CS(=O)(=O)O (racemic) [E6, propofol 3-N-isopropylamino-2-(R,S)-2-monofluoromethylpropionate methanesulfonate]",27.1,44.3,24.2,40.1,–
"CC(C)c1cccc(C(C)C)c1OC(=O)C(F)CCCCCC(=O)[O-].CC(C)c1cccc(C(C)C)c1OC(=O)C(F)CCCCCC(=O)[O-].[Ca+2] (racemic) [F4, di[propofol 7-carboxyl-2-(R,S)-fluorocaprylate] calcium salt]",48.3,61.7,63.8,–,–
"CC(C)c1cccc(C(C)C)c1OC(=O)C(CF)CCCCCCC(=O)[O-].CC(C)c1cccc(C(C)C)c1OC(=O)C(CF)CCCCCCC(=O)[O-].CC(C)c1cccc(C(C)C)c1OC(=O)C(CF)CCCCCCC(=O)[O-].[Al+3] (racemic) [F6, tri[propofol 8-carboxyl-2-(R,S)-monofluoromethylpelargonate] aluminum salt]",37.1,58.3,34.2,55.7,–
"CC(C)c1cccc(C(C)C)c1OC(=O)C(F)CCOP(=O)([O-])[O-].[K+].[K+] (racemic) [G1, {1-[4-(2,6-diisopropylphenoxy)-4-oxo-3-(R,S)-3-fluoro-1-butyl]} phosphate monoester dipotassium salt]",43.7,68.7,54.1,67.4,Dissociation percent 30 s [2]: 86.9%
"CC(C)c1cccc(C(C)C)c1OC(=O)C(CF)CP(=O)([O-])[O-].CC(C)c1cccc(C(C)C)c1OC(=O)C(CF)CP(=O)([O-])[O-].CC(C)c1cccc(C(C)C)c1OC(=O)C(CF)CP(=O)([O-])[O-].[Al+3].[Al+3] (racemic) [G6, tri[propofol 3-phosphoryl-2-(R,S)-2-monofluoromethylpropionate] dialuminum salt]",27.1,44.3,22.1,39.7,–
"CC(C)c1cccc(C(C)C)c1OC(=O)[C@H](F)CCN(C)C.Cl [E2, Propofol 4-(N,N-dimethyl)amino-2-(R)-fluorobutyrate hydrochloride]",97.7,100,100,–,"TI Mouse [3, 9]: 3; TI Mouse [3, 10]: 4*; TI Mouse [3, 11]: 3.7; TI Mouse [3, 12]: 3.6*; Mouse ED50 [3, 9]: 15.4 mg/kg; Mouse ED50 [3, 10]: 17.9 mg/kg; Mouse ED50 [3, 11]: 13.0 mg/kg; Mouse ED50 [3, 12]: 15.2 mg/kg; TI Rat ([4]; 3 mg/ml solution): 3.8; TI Rat ([4]; 6 mg/ml solution): 3.1; Rat ED50 ([4]; 3 mg/ml solution): 9.8 mg/kg; Rat ED50 ([4]; 6 mg/ml solution): 10.1 mg/kg; TI index [5]: 3.5; Latent Period [6, 13]: 14.6 ± 0.9 s; Persistent period [6, 13]: 383.6 ± 242.1 s; Latent Period [6, 14]: 14.2 ± 1.9 s; Persistent period [6, 14]: 543 ± 231 s"
"CC(C)c1cccc(C(C)C)c1OC(=O)[C@@H](CCN(C)C)C(F)(F)F.Cl [E3, propofol 4-N,N-dimethylamino-2-(R)-2-trifluoromethylbutyrate hydrochloride]",51.7,67.2,77.5,–,–
"CC(C)c1cccc(C(C)C)c1OC(=O)[C@@H](F)CCCN(C)Cc1ccccc1.Cl [E5, propofol 5-N-methyl-N-benzylamino-2-(S)-2-fluorovalerate hydrochloride]",48.4,69.7,72.3,97.3,–
"CC(C)c1cccc(C(C)C)c1OC(=O)[C@@H](F)CCN1CC1.Cl [E7, propofol 4-(aziridin-1-yl)-2-(S)-2-fluorobutyrate hydrochloride]",89.4,94.4,92.3,–,–
"CC(C)c1cccc(C(C)C)c1OC(=O)[C@H](F)CCN1CCCC1.Cl [E8, propofol 4-(pyrrolidin-1-yl)-2-(R)-2-fluorobutyrate hydrochloride]",91.1,98.2,95.6,–,–
"CC(C)c1cccc(C(C)C)c1OC(=O)C(F)CCC(=O)[O-].[K+] [F2, propofol 4-carboxyl-2-(S)-fluorovalerate potassium salt]",73.4,94.8,92.3,–,–
"CC(C)c1cccc(C(C)C)c1OC(=O)C(CCC(=O)[O-])C(F)(F)F.[Li+] [F3, propofol 4-carboxyl-2-(R)-2-trifluoromethyl valerate lithium salt]",28.4,47.9,47.4,–,–
"CC(C)c1cccc(C(C)C)c1OC(=O)C(F)CCCC(=O)[O-].CC(C)c1cccc(C(C)C)c1OC(=O)C(F)CCCC(=O)[O-].[Zn+2] [F5, di[propofol 5-carboxyl-2-(S)-fluorohexanoate] zinc salt]",34.9,58.8,63.2,80.3,–
"CC(C)c1cccc(C(C)C)c1OC(=O)C(F)CC(=O)[O-].[Na+] [F7, Propofol-2-(R)-fluorobutyrate monoester sodium salt]",46.3,72.8,58.8,71.3,"Dissociation percent 30 s [2]: 85.4%; TI Mouse [3, 9]: 2.6; TI Mouse [3, 10]: 2.8*; TI Mouse [3, 11]: 3.1; TI Mouse [3, 12]: 2.4*; Mouse ED50 [3, 9]: 19.2 mg/kg; Mouse ED50 [3, 10]: 21.4 mg/kg; Mouse ED50 [3, 11]: 18.1 mg/kg; Mouse ED50 [3, 12]: 20.7 mg/kg; TI Rat ([4]; 3 mg/ml solution): 3.0; TI Rat ([4]; 6 mg/ml solution): 3.5; Rat ED50 ([4]; 3 mg/ml solution): 15.7 mg/kg; Rat ED50 ([4]; 6 mg/ml solution): 12.5 mg/kg; TI index [5]: 2.6; Latent Period [6, 13]: 20.2 ± 0.6 s; Persistent period [6, 13]: 335.5 ± 218.1 s; Latent Period [6, 14]: 16.2 ± 2.2 s; Persistent period [6, 14]: 517 ± 231 s"
"CC(C)c1cccc(C(C)C)c1OC(=O)C(F)C(=O)[O-].[Na+] [F8, Propofol-2-(R)-fluoropropionate monoester sodium salt]",41.2,70.4,55.5,69.3,Dissociation percent 30 s [2]: 83.3%
"CC(C)c1cccc(C(C)C)c1OC(=O)[C@@H](F)CCOP(=O)([O-])[O-].[Na+].[Na+] [G2, {1-[4-(2,6-diisopropylphenoxy)-4-oxo-3-(S)-3-fluoro-1-butyl]} phosphate monoester disodium salt]",37.2,54.3,48.5,69.7,"TI Mouse [3, 9]: 3.0; TI Mouse [3, 10]: 2.8*; TI Mouse [3, 11]: 2.3; TI Mouse [3, 12]: 1.9*; Mouse ED50 [3, 9]: 19.8 mg/kg; Mouse ED50 [3, 10]: 23.7 mg/kg; Mouse ED50 [3, 11]: 22.8 mg/kg; Mouse ED50 [3, 12]: 25.6 mg/kg; TI Rat ([4]; 3 mg/ml solution): 3.3; TI Rat ([4]; 6 mg/ml solution): 2.8; Rat ED50 ([4]; 6 mg/ml solution): 21.1 mg/kg; Latent Period [6, 13]: 16.3 ± 0.8 s; Persistent period [6, 13]: 383.6 ± 242.1 s; Latent Period [6, 14]: 15.7 ± 2.3 s; Persistent period [6, 14]: 571 ± 173 s"
"CC(C)c1cccc(C(C)C)c1OC(=O)[C@@H](CCOP(=O)([O-])[O-])C(F)(F)F.[Li+].[Li+] [G3, {1-[4-(2,6-diisopropylphenoxy)-4-oxo-3-(R)-3-trifluoromethyl-1-butyl]} phosphate monoester dilithium salt]",21.7,43.6,38.7,–,–
"CC(C)c1cccc(C(C)C)c1O [Propofol, 2,6-diisopropylphenol]",–,–,–,–,"TI Mouse [3, 9]: 4.9; TI Mouse [3, 11]: 3.8; TI Rat ([4]; 3 mg/ml solution): 5.5; TI Rat ([4]; 6 mg/ml solution): 4.9; LD50 ([7]; 3 mg/ml solution): 38.4 mg/kg; LD50 ([7]; 6 mg/ml solution): 42.9 mg/kg; LD50 ([8]; 3 mg/ml solution): 21.5 mg/kg; LD50 ([8]; 6 mg/ml solution): 17.4 mg/kg"
